Patent publication US12564547B2, “Compositions, formulations, and methods for skin treatment” (Oddity Labs, LLC, priority 2022, dated 2026)

Each compound was assayed on human dermal fibroblasts (assay: Human dermal fibroblast cells (hDFC) proliferation, cell viability assay (CellTiter-Glo, manual cell counting)). Conditions: hDFCs proliferation; control is DMSO.
Assay type: cell-based
Also: test concentration or dose not given here.

| Compound | Activity (Percent Increase Proliferation of hFDPCs (%)) |
| --- | --- |
| COCCNC(=O)c1ccc2[nH]c3c(c2c1)CCCC3 [IV-3, N-(2-methoxyethyl)-6,7,8,9-tetrahydro-5H-carbazole-3-carboxamide] | D (increased proliferation of hFDPCs equals to or larger than 8%) |
| CC(O)CNC(=O)c1ccc2[nH]c3c(c2c1)CCCC3 (stereo not shown) [IV-4, N-(2-hydroxypropyl)-6,7,8,9-tetrahydro-5H-carbazole-3-carboxamide] | C (increased proliferation of hFDPCs equals to or larger than 4% and less than 8%) |
| O=C(O)CN1CCC(NC(=O)C2CCCc3c2[nH]c2ccccc32)CC1 (stereo not shown) [IV-5, 2-[4-(2,3,4,9-tetrahydro-1H-carbazole-1-carbonylamino)piperidin-1-yl]acetic acid] | D (increased proliferation of hFDPCs equals to or larger than 8%) |
| O=C(O)CNC(=O)c1ccc2[nH]c3c(c2c1)CCCC3 [IV-6, 2-(6,7,8,9-tetrahydro-5H-carbazole-3-carbonylamino)acetic acid] | B (increased proliferation of hFDPCs equals to or larger than 1% and less than 4%) |
| CC1=C(/C=C/C(C)=C/C=C/C(C)=C/CO)C(C)(C)CCC1 [Retinol, reference compound] | B (increased proliferation of hFDPCs equals to or larger than 1% and less than 4%) |
| CN(C)CCCn1c(=O)[nH]c2ccccc2c1=O [V-2, 3-[3-(dimethylamino)propyl]-1H-quinazoline-2,4-dione] | A (increased proliferation of hFDPCs of less than 1%) |
| CN(C)CCn1c(=O)[nH]c2ccccc2c1=O [V-3, 3-[2-(dimethylamino)ethyl]-1H-quinazoline-2,4-dione] | A (increased proliferation of hFDPCs of less than 1%) |
| COC(=O)Cn1c(=O)[nH]c2ccccc2c1=O [V-4, methyl 2-(2,4-dioxo-1H-quinazolin-3-yl)acetate] | A (increased proliferation of hFDPCs of less than 1%) |
| COCCOCCCn1c(=O)[nH]c2ccccc2c1=O [V-5, 3-[3-(2-methoxyethoxy)propyl]-1H-quinazoline-2,4-dione] | D (increased proliferation of hFDPCs equals to or larger than 8%) |
| CC(NC(=O)CNC(=O)c1cccs1)c1ccccc1 (stereo not shown) [VI-1, N-[2-oxo-2-(1-phenylethylamino)ethyl]thiophene-2-carboxamide] | D (increased proliferation of hFDPCs equals to or larger than 8%) |
| Cc1ccsc1C(=O)NC(C)C [VI-2, 3-methyl-N-propan-2-ylthiophene-2-carboxamide] | B (increased proliferation of hFDPCs equals to or larger than 1% and less than 4%) |
| CNC(=O)C(CC(C)C)NC(=O)c1sccc1OC (stereo not shown) [VI-3, 3-methoxy-N-[4-methyl-1-(methylamino)-1-oxopentan-2-yl]thiophene-2-carboxamide] | D (increased proliferation of hFDPCs equals to or larger than 8%) |
| CCN1C(=S)N(C)NC1(C)C [VII-1, 4-ethyl-2,5,5-trimethyl-1,2,4-triazolidine-3-thione] | D (increased proliferation of hFDPCs equals to or larger than 8%) |
| NN1CCNCC1 [VII-2, piperazin-1-amine] | D (increased proliferation of hFDPCs equals to or larger than 8%) |
| NC1CSCC1O (stereo not shown) [VII-3, 4-aminothiolan-3-ol] | D (increased proliferation of hFDPCs equals to or larger than 8%) |
| NC12CN3CN(CN(C3)C1)C2 [VII-4, 1,3,5-triazatricyclo[3.3.1.13,7]decan-7-amine] | D (increased proliferation of hFDPCs equals to or larger than 8%) |

| Compound | Activity (Percent Increase Proliferation of hFDPCs (%)) |
| --- | --- |
| CC1=NN(C=O)C(C)(C)C1 [VII-5, 3,5,5-trimethyl-4H-pyrazole-1-carbaldehyde] | D (increased proliferation of hFDPCs equals to or larger than 8%) |
| CCOC(OCC)OCC [VII-6, diethoxymethoxyethane] | D (increased proliferation of hFDPCs equals to or larger than 8%) |
| O[C@H]1CCNC[C@]12CCCNC2 [VII-7, (5S,6R)-2,8-diazaspiro[5.5]undecan-5-ol] | D (increased proliferation of hFDPCs equals to or larger than 8%) |
| CC1CNCCN1 (stereo not shown) [VII-8, 2-methylpiperazine] | D (increased proliferation of hFDPCs equals to or larger than 8%) |
| CN1CCCNS1(=O)=O [VII-9, 2-methyl-1,2,6-thiadiazinane 1,1-dioxide] | D (increased proliferation of hFDPCs equals to or larger than 8%) |
| CN(C)CN(C)C [VII-11, N,N,N′,N′-tetramethylmethanediamine] | D (increased proliferation of hFDPCs equals to or larger than 8%) |
| Cc1c(Br)c([N+](=O)[O-])nn1CC(=O)N1CCCCCC1 [VII-12, 1-(azepan-1-yl)-2-(4-bromo-5-methyl-3-nitropyrazol-1-yl)ethanone] | C (increased proliferation of hFDPCs equals to or larger than 4% and less than 8%) |
| COc1cc(OC)nc(OC)n1 [VII-14, 2,4,6-trimethoxypyrimidine] | B (increased proliferation of hFDPCs equals to or larger than 1% and less than 4%) |
| CC(N)c1nnnn1C (stereo not shown) [VII-15, 1-(1-methyltetrazol-5-yl)ethanamine] | D (increased proliferation of hFDPCs equals to or larger than 8%) |
| CN(C)c1ccccc1CN1CCCCC1C(=O)O (stereo not shown) [VII-16, 1-[[2-(dimethylamino)phenyl]methyl]piperidine-2-carboxylic acid] | D (increased proliferation of hFDPCs equals to or larger than 8%) |
| CC1(C)CC(C(N)=O)C(C)(C)N1 (stereo not shown) [VII-17, 2,2,5,5-tetramethylpyrrolidine-3-carboxamide] | D (increased proliferation of hFDPCs equals to or larger than 8%) |
| NC(=O)C1CCCc2ccccc2N1 (stereo not shown) [VII-18, 2,3,4,5-tetrahydro-1H-1-benzazepine-2-carboxamide] | D (increased proliferation of hFDPCs equals to or larger than 8%) |
| CCNC(=O)CCSc1nc(C)cc(C)n1 [VII-19, 3-(4,6-dimethylpyrimidin-2-yl)sulfanyl-N-ethylpropanamide] | C (increased proliferation of hFDPCs equals to or larger than 4% and less than 8%) |
| CC(=O)NC1CCN(Cc2ccccc2N(C)C)CC1 [VII-20, N-[1-[[2-(dimethylamino)phenyl]methyl]piperidin-4-yl]acetamide] | D (increased proliferation of hFDPCs equals to or larger than 8%) |
| NC(=O)C1CCCCC1NC(=O)c1ccc(Cl)cn1 (stereo not shown) [VII-21, N-(2-carbamoylcyclohexyl)-5-chloropyridine-2-carboxamide] | D (increased proliferation of hFDPCs equals to or larger than 8%) |
